Laboratory results from patent US7897591B2, “Method of treating fatty liver disease” (priority 2005, dated 2011).

Tests used:
[1] = test system: C57BL/6 mice; test: MR spectroscopy of percentage liver fat content in HCD mouse model; format: in vivo; settings: HCD+MAR mice, 100 mg/kg twice daily orogastric gavage, 19 days; mean±SEM; P<0.05 vs HCD-only (24.1±1.7%)
Protocol: Experiments were performed on 5-6 week-old C57BL/6 mice (Jackson Laboratories, Bar Harbor, Me.). The animals, in groups of five, were housed in a barrier room and were acclimated to their environment for at least 72 hours prior to the initiation of each experiment. Animal protocols complied with the NIH Animal Research Advisory Committee guidelines and were approved by the Children's Hospital Boston Animal Care and Use Committee. Control animals (n=5) received normal chow and water ad libitum. All animals in the experimental groups were fed a fat-free, high carbohydrate liquid diet (HCD) ad libitum placed in one bottle per cage as previously described (3, 62). No additional sources of nutrition or hydration were provided. […] Three 2 mm thick slices were imaged for each sample and the saturation recovery curves were generated from signal intensities measured in identically sized regions of interest within a given slice. […] Spectra were obtained following Fourier transformation and phasing, and percent fat content was determined relative to water by numerical integration of the areas under the lipid and water peaks by an independent blinded reviewer.

[2] = test system: C57BL/6 mice; test: Fatty acid analysis of serum and liver lipids (triglycerides, phospholipids) in HCD mouse model; format: in vivo
Protocol: Experiments were performed on 5-6 week-old C57BL/6 mice (Jackson Laboratories, Bar Harbor, Me.). The animals, in groups of five, were housed in a barrier room and were acclimated to their environment for at least 72 hours prior to the initiation of each experiment. Animal protocols complied with the NIH Animal Research Advisory Committee guidelines and were approved by the Children's Hospital Boston Animal Care and Use Committee. Control animals (n=5) received normal chow and water ad libitum. All animals in the experimental groups were fed a fat-free, high carbohydrate liquid diet (HCD) ad libitum placed in one bottle per cage as previously described (3, 62). No additional sources of nutrition or hydration were provided. The HCD liquid solution contained 20% dextrose, a commercial mixture of 2% essential and nonessential amino acids (TrophAmine, B. Braun Medical, Irvine, Calif.), 2 ml trace elements (Trace Elements Injection 4, USP—Pediatric, American Regent Shirley, N.Y.), and 5 ml multivitamins (M.V.I. Pediatric™, Mayne Pharma, Paramus, N.J.). Each liter of HCD contained 30 meq sodium, 20 meq potassium chloride, 15 meq calcium, 10 meq magnesium, and 10 mM phosphate. The bottles were replaced daily with fresh HCD solution. HCD animals (n=5) received HCD only and no additional treatment for 19 days. The HCD+MAR animals (n=15) additionally received 100 mg/kg of Marimastat™ in 0.45% methylcellulose (Sigma-Aldrich Corporation, St. Louis, Mo.) vehicle twice daily via orogastric gavage. The animals were individually weighed every third day and at sacrifice. Fatty acid analysis was conducted as described previously (1, 2, 31). Briefly, lipids were extracted from serum and livers, and then fractionated into triglycerides and phospholipids by solid phase chromatography using an aminopropyl column. After appropriate processing, samples were injected into a Hewlett Packard 5890A gas chromatograph for analysis.

For `CNC(=O)[C@@H](NC(=O)[C@H](CC(C)C)[C@H](O)C(=O)NO)C(C)(C)C` [Marimastat], the “liver fat content by MR spectroscopy” value [1] was 8.1±1.2%, the hepatic triglyceride level ([2]; HCD+MAR vs HCD, remained higher than in controls) was “significantly reduced” and the “serum triglyceride and phospholipids” value ([2]; HCD+MAR, reduced in HCD-only compared to control) was “normalized”. For the same molecule, the hepatic phospholipids ([2]; among the three groups) was “no significant differences”.
